In patent publication US12070489B2, “Method of treating cancer with a cancer therapy in combination with another therapeutic agent” (Rappaport Family Institute for Research in the Medical …, priority 2018, dated 2024):

Columns and labels:
IL-6 = IL-6 quantification in plasma by ELISA after DOX; assay type: in vivo; details: naive female BALB/c mice, 240 μg DOX IP, one day after injection
Description: For determination of IL-6 expression following DOX treatment, 7 weeks old naïve female BALB/c mice (n=3) were IP injected with 240 μg DOX. Control mice (n=3) were left untreated. One day after the injection, mice were bled by cardiac puncture and blood was collected into EDTA-coated tubes. […] Supernatants (representing the plasma samples) were collected and the level of IL-6 in the plasma was determined by ELISA (IL-6 Quantikine ELISA Kit, R&D systems) according to the manufacturer's instruction.
To investigate the effect of chemotherapy on the level of IL-6 in the circulation, naïve 7-weeks old female BALB/c mice were IP injected with 240 μg DOX (doxorubicin, Adriamycin™) or were left untreated (control mice). One day after the injection, the level of IL-6 in the plasma was determined by ELISA.

circulating factors = test: Mouse L308 Array screen of plasma from naive mice treated with FOLFOX or Paclitaxel chemotherapy; assay type: in vivo; details: circulating level, BALB/c mice
Description: Determination of proteins expression using protein arrays was performed according to the manufacturer's instructions.
To identify host-derived circulating factors whose levels change in response to chemotherapy, a protein array-based screens were performed using plasma from naïve (non-tumor bearing) mice that were treated with different chemotherapy types. The use of naïve mice allows identification of factors specifically generated by the host in response to chemotherapy, independent of tumor presence. […] Control mice (n=5) were injected with vehicle control. Twenty-four hours after treatment administration, mice were sacrificed, plasma was isolated and pooled per group. […] These factors, and their respective fold changes in response to each chemotherapy type (Paclitaxel™, FOLFOX™), are listed in Table 5.

SMILES: COc1cccc2c1C(=O)c1c(O)c3c(c(O)c1C2=O)C[C@@](O)(C(=O)CO)C[C@@H]3O[C@H]1C[C@H](N)[C@H](O)[C@H](C)O1 [DOX, doxorubicin]
- increase of plasma level of IL-6 compared to control (IL-6): 22 fold

SMILES: CC(=O)O[C@H]1C(=O)[C@@]2(C)[C@H]([C@H](OC(=O)c3ccccc3)[C@]3(O)C[C@H](OC(=O)[C@H](O)[C@@H](NC(=O)c4ccccc4)c4ccccc4)C(C)=C1C3(C)C)[C@]1(OC(C)=O)CO[C@@H]1C[C@@H]2O [Paclitaxel, paclitaxel]
- Fold change CRG-2 (chemotherapy-treated vs control) (circulating factors): >10 fold
- Fold change CRP (chemotherapy-treated vs control) (circulating factors): >10 fold
- Fold change CXCL14/BRAK (chemotherapy-treated vs control) (circulating factors): 2.6 fold
- Fold change CXCL16 (chemotherapy-treated vs control) (circulating factors): 4.4 fold
- Fold change CXCR2/IL-8 RB (chemotherapy-treated vs control) (circulating factors): 2.0 fold
- Fold change CXCR6 (chemotherapy-treated vs control) (circulating factors): 3.6 fold
- Fold change Cardiotrophin-1 (chemotherapy-treated vs control) (circulating factors): >10 fold
- Fold change Cripto (chemotherapy-treated vs control) (circulating factors): >10 fold
- Fold change Dkk-3 (chemotherapy-treated vs control) (circulating factors): >10 fold
- Fold change Endocan (chemotherapy-treated vs control) (circulating factors): 4.4 fold
- Fold change Endostatin (chemotherapy-treated vs control) (circulating factors): 4.9 fold
- Fold change Eotaxin-2 (chemotherapy-treated vs control) (circulating factors): 3.4 fold
- Fold change Erythropoietin (EPO) (chemotherapy-treated vs control) (circulating factors): 3.9 fold
- Fold change Frizzled-6 (chemotherapy-treated vs control) (circulating factors): 2.2 fold
- Fold change Frizzled-7 (chemotherapy-treated vs control) (circulating factors): 6.1 fold
- Fold change GITR (chemotherapy-treated vs control) (circulating factors): >10 fold
- Fold change GM-CSF (chemotherapy-treated vs control) (circulating factors): 2.4 fold
- Fold change IGFBP-1 (chemotherapy-treated vs control) (circulating factors): >10 fold
- Fold change IL-1 R4/ST2 (chemotherapy-treated vs control) (circulating factors): 1.9 fold
- Fold change IL-1 alpha (chemotherapy-treated vs control) (circulating factors): >10 fold
- Fold change IL-3 R alpha (chemotherapy-treated vs control) (circulating factors): >10 fold
- Fold change IL-7 R alpha (chemotherapy-treated vs control) (circulating factors): 8.8 fold
- Fold change IL-9 R (chemotherapy-treated vs control) (circulating factors): 5.7 fold
- Fold change IL-12 p70 (chemotherapy-treated vs control) (circulating factors): >10 fold
- Fold change IL-15 (chemotherapy-treated vs control) (circulating factors): 2.5 fold
- Fold change IL-15 R alpha (chemotherapy-treated vs control) (circulating factors): 3.4 fold
- Fold change IL-17R (chemotherapy-treated vs control) (circulating factors): 2.6 fold
- Fold change IL-18 R alpha/IL-1 R5 (chemotherapy-treated vs control) (circulating factors): >10 fold
- Fold change IL-20 (chemotherapy-treated vs control) (circulating factors): >10 fold
- Fold change IL-23 R (chemotherapy-treated vs control) (circulating factors): 1.8 fold
- Fold change IL-27 (chemotherapy-treated vs control) (circulating factors): 2.0 fold
- Fold change IL-28/IFN-lambda (chemotherapy-treated vs control) (circulating factors): 5.4 fold
- Fold change IL-31 (chemotherapy-treated vs control) (circulating factors): >10 fold
- Fold change LIF (chemotherapy-treated vs control) (circulating factors): >10 fold
- Fold change LIX (chemotherapy-treated vs control) (circulating factors): >10 fold
- Fold change LRP-6 (chemotherapy-treated vs control) (circulating factors): >10 fold
- Fold change Lungkine (chemotherapy-treated vs control) (circulating factors): 2.0 fold
- Fold change Lymphotoxin beta R/TNFRSF3 (chemotherapy-treated vs control) (circulating factors): 1.6 fold
- Fold change M-CSF (chemotherapy-treated vs control) (circulating factors): 1.8 fold
- Fold change MAdCAM-1 (chemotherapy-treated vs control) (circulating factors): >10 fold
- Fold change MCP-1 (chemotherapy-treated vs control) (circulating factors): >10 fold
- Fold change MIP-1 gamma (chemotherapy-treated vs control) (circulating factors): >10 fold
- Fold change MIP-2 (chemotherapy-treated vs control) (circulating factors): 3.1 fold
- Fold change MMP-9 (chemotherapy-treated vs control) (circulating factors): 4.3 fold
- Fold change P-Selectin (chemotherapy-treated vs control) (circulating factors): >10 fold
- Fold change PF-4 (chemotherapy-treated vs control) (circulating factors): 3.6 fold
- Fold change Prolactin (chemotherapy-treated vs control) (circulating factors): 4.1 fold
- Fold change SDF-1 (chemotherapy-treated vs control) (circulating factors): >10 fold
- Fold change Soggy-1 (chemotherapy-treated vs control) (circulating factors): 3.6 fold
- Fold change TACI/TNFRSF13B (chemotherapy-treated vs control) (circulating factors): >10 fold
- Fold change TARC (chemotherapy-treated vs control) (circulating factors): >10 fold
- Fold change TCA-3 (chemotherapy-treated vs control) (circulating factors): 3.0 fold
- Fold change TGF-beta 2 (chemotherapy-treated vs control) (circulating factors): 3.4 fold
- Fold change TGF-beta RII (chemotherapy-treated vs control) (circulating factors): 2.2 fold
- Fold change TNF-alpha (chemotherapy-treated vs control) (circulating factors): 2.8 fold
- Fold change TNF-beta/TNFSF1B (chemotherapy-treated vs control) (circulating factors): 2.9 fold
- Fold change TPO (chemotherapy-treated vs control) (circulating factors): >10 fold
- Fold change TWEAK R/TNFRSF12 (chemotherapy-treated vs control) (circulating factors): >10 fold
- Fold change Thrombospondin (chemotherapy-treated vs control) (circulating factors): >10 fold
- Fold change Thymus Chemokine-1 (chemotherapy-treated vs control) (circulating factors): >10 fold
- Fold change VEGFC (chemotherapy-treated vs control) (circulating factors): >10 fold
- Fold change WISP-1/CCN4 (chemotherapy-treated vs control) (circulating factors): 3.7 fold
